Reference: ChEMBL document CHEMBL3853288, “Biginkgosides A-I, Unexpected Minor Dimeric Flavonol Diglycosidic Truxinate and Truxillate Esters from Ginkgo biloba Leaves and Their Antineuroinflammatory and Neuroprotective Activities” (J Nat Prod, 2016)

Tests used:
[1] = Cytotoxicity against LPS-stimulated mouse BV2 cells assessed as cell viability at 20 uM incubated for 4 hrs followed by LPS stimulation for 24 hrs by MTT assay; assay type: toxicity, BV-2; details: read-out: Activity
[2] = Antineuroinflammatory activity in mouse BV2 cells assessed as inhibition of LPS-induced NO production incubated for 4 hrs followed by LPS stimulation for 24 hrs by Griess assay; assay type: functional, cell-based; details: BV-2
[3] = tested on: SH-SY5Y; test: Neuroprotection against amyloid beta (25 to 35)-induced cell toxicity in human SH-SY5Y cells assessed as cell viability at 1 uM incubated for 2 hrs followed by amyloid beta (25 to 35) treatment for 24 hrs by MTT assay (reference value: 62.4 +/- 3.5%); assay type: functional; details: read-out: Activity
[4] = tested on: SH-SY5Y; test: Neuroprotection against amyloid beta (25 to 35)-induced cell toxicity in human SH-SY5Y cells assessed as cell viability at 10 uM incubated for 2 hrs followed by amyloid beta (25 to 35) treatment for 24 hrs by MTT assay (reference value: 62.4 +/- 3.5%); assay type: functional; details: read-out: Activity

| Compound | IC50 [2] | also measured |
| --- | --- | --- |
| C[C@@H]1O[C@@H](Oc2c(-c3ccc(O)c(O)c3)oc3cc(O)cc(O)c3c2=O)[C@H](O[C@@H]2O[C@H](COC(=O)[C@H]3[C@H](C(=O)OC[C@H]4O[C@@H](O[C@H]5[C@H](Oc6c(-c7ccc(O)c(O)c7)oc7cc(O)cc(O)c7c6=O)O[C@@H](C)[C@H](O)[C@H]5O)[C@H](O)[C@@H](O)[C@@H]4O)[C@@H](c4ccc(O)cc4)[C@@H]3c3ccc(O)cc3)[C@@H](O)[C@H](O)[C@H]2O)[C@H](O)[C@H]1O | 2.91 µM | viability at 24 h, 20 µM [1]: 99% |
| C[C@@H]1O[C@@H](Oc2c(-c3ccc(O)c(O)c3)oc3cc(O)cc(O)c3c2=O)[C@H](O[C@@H]2O[C@H](COC(=O)[C@@H]3[C@H](C(=O)OC[C@H]4O[C@@H](O[C@H]5[C@H](Oc6c(-c7ccc(O)c(O)c7)oc7cc(O)cc(O)c7c6=O)O[C@@H](C)[C@H](O)[C@H]5O)[C@H](O)[C@@H](O)[C@@H]4O)[C@@H](c4ccc(O)cc4)[C@H]3c3ccc(O)cc3)[C@@H](O)[C@H](O)[C@H]2O)[C@H](O)[C@H]1O | > 100 µM |  |
| C[C@@H]1O[C@@H](Oc2c(-c3ccc(O)cc3)oc3cc(O)cc(O)c3c2=O)[C@H](O[C@@H]2O[C@H](COC(=O)[C@H]3[C@H](c4ccc(O)cc4)[C@@H](C(=O)OC[C@H]4O[C@@H](O[C@H]5[C@H](Oc6c(-c7ccc(O)cc7)oc7cc(O)cc(O)c7c6=O)O[C@@H](C)[C@H](O)[C@H]5O)[C@H](O)[C@@H](O)[C@@H]4O)[C@@H]3c3ccc(O)cc3)[C@@H](O)[C@H](O)[C@H]2O)[C@H](O)[C@H]1O | 17.2 µM | viability at 24 h, 20 µM [1]: 97.7% |
| C[C@@H]1O[C@@H](Oc2c(-c3ccc(O)cc3)oc3cc(O)cc(O)c3c2=O)[C@H](O[C@@H]2O[C@H](COC(=O)[C@H]3[C@H](C(=O)OC[C@H]4O[C@@H](O[C@H]5[C@H](Oc6c(-c7ccc(O)c(O)c7)oc7cc(O)cc(O)c7c6=O)O[C@@H](C)[C@H](O)[C@H]5O)[C@H](O)[C@@H](O)[C@@H]4O)[C@@H](c4ccc(O)cc4)[C@@H]3c3ccc(O)cc3)[C@@H](O)[C@H](O)[C@H]2O)[C@H](O)[C@H]1O | > 100 µM | viability at 1 µM [3]: 96.7% |
| C[C@@H]1O[C@@H](Oc2c(-c3ccc(O)cc3)oc3cc(O)cc(O)c3c2=O)[C@H](O[C@@H]2O[C@H](COC(=O)[C@@H]3[C@H](C(=O)OC[C@H]4O[C@@H](O[C@H]5[C@H](Oc6c(-c7ccc(O)cc7)oc7cc(O)cc(O)c7c6=O)O[C@@H](C)[C@H](O)[C@H]5O)[C@H](O)[C@@H](O)[C@@H]4O)[C@@H](c4ccc(O)cc4)[C@H]3c3ccc(O)cc3)[C@@H](O)[C@H](O)[C@H]2O)[C@H](O)[C@H]1O | > 100 µM |  |
| C[C@@H]1O[C@@H](Oc2c(-c3ccc(O)cc3)oc3cc(O)cc(O)c3c2=O)[C@H](O[C@@H]2O[C@H](COC(=O)[C@H]3[C@H](C(=O)OC[C@H]4O[C@@H](O[C@H]5[C@H](Oc6c(-c7ccc(O)cc7)oc7cc(O)cc(O)c7c6=O)O[C@@H](C)[C@H](O)[C@H]5O)[C@H](O)[C@@H](O)[C@@H]4O)[C@@H](c4ccc(O)cc4)[C@@H]3c3ccc(O)cc3)[C@@H](O)[C@H](O)[C@H]2O)[C@H](O)[C@H]1O | > 100 µM |  |
| C[C@@H]1O[C@@H](Oc2c(-c3ccc(O)c(O)c3)oc3cc(O)cc(O)c3c2=O)[C@H](O[C@@H]2O[C@H](COC(=O)[C@H]3[C@H](c4ccc(O)cc4)[C@@H](C(=O)OC[C@H]4O[C@@H](O[C@H]5[C@H](Oc6c(-c7ccc(O)c(O)c7)oc7cc(O)cc(O)c7c6=O)O[C@@H](C)[C@H](O)[C@H]5O)[C@H](O)[C@@H](O)[C@@H]4O)[C@@H]3c3ccc(O)cc3)[C@@H](O)[C@H](O)[C@H]2O)[C@H](O)[C@H]1O | > 100 µM |  |
| C[C@@H]1O[C@@H](Oc2c(-c3ccc(O)cc3)oc3cc(O)cc(O)c3c2=O)[C@H](O[C@@H]2O[C@H](COC(=O)[C@@H]3[C@H](C(=O)OC[C@H]4O[C@@H](O[C@H]5[C@H](Oc6c(-c7ccc(O)cc7)oc7cc(O)cc(O)c7c6=O)O[C@@H](C)[C@H](O)[C@H]5O)[C@H](O)[C@@H](O)[C@@H]4O)[C@@H](c4ccc(O)cc4)[C@@H]3c3ccc(O)cc3)[C@@H](O)[C@H](O)[C@H]2O)[C@H](O)[C@H]1O | > 100 µM |  |
| C[C@@H]1O[C@@H](Oc2c(-c3ccc(O)cc3)oc3cc(O)cc(O)c3c2=O)[C@H](O[C@@H]2O[C@H](COC(=O)[C@@H]3[C@@H](C(=O)OC[C@H]4O[C@@H](O[C@H]5[C@H](Oc6c(-c7ccc(O)cc7)oc7cc(O)cc(O)c7c6=O)O[C@@H](C)[C@H](O)[C@H]5O)[C@H](O)[C@@H](O)[C@@H]4O)[C@@H](c4ccc(O)cc4)[C@@H]3c3ccc(O)cc3)[C@@H](O)[C@H](O)[C@H]2O)[C@H](O)[C@H]1O | > 100 µM |  |
| O=C(O[C@@H]1Cc2c(O)cc(O)cc2O[C@@H]1c1cc(O)c(O)c(O)c1)c1cc(O)c(O)c(O)c1 [EPIGALOCATECHIN GALLATE] |  | viability at 10 µM [4]: 99% |
| CNC(=N)NCCC[C@H](N)C(=O)O [TILARGININE] |  | viability at 24 h, 20 µM [1]: 98.5% |
